{
  "source": "patent US12552848B2",
  "about": "“Hydrochloride salts of C5a receptor agonist peptides” (Board of Regents of the University of Nebraska, priority 2017, dated 2026)",
  "key": {"mouse spleen cells": {"tested_on": "mouse spleen cells", "test": "24-hour dose response: IL-6 release from mouse spleen cells (ELISA of supernatants)", "assay_type": "cell-based", "conditions": "for IL-6: 24 hrs incubation, mouse spleen cells, ± SD", "experimental": "(§1) Salt forms of EP67 (SEQ ID NO:2) generated using the above procedures were incubated at varying concentrations with murine splenocytes over time.\nA 24-hour dose response was investigated by incubating mouse spleen cells for 24 hrs with varying concentrations of the EP67 salts. Supernatants were collected and assayed for IL-6 by ELISA."}, "mice spleen cells": {"tested_on": "mice spleen cells", "test": "IL-6 kinetics: IL-6 release over time from mice spleen cells", "assay_type": "cell-based, mouse", "conditions": "for IL-6: 100 μg/mL, mice spleen cells, ± SD", "experimental": "as §1\nNext, IL-6 kinetics were investigated by incubating mice spleen cells with 100 μg/mL of each salt form, and the release was examined over time."}},
  "note": "Non-standard residues stand in square brackets, D forms with d. No end group written: not given here. NMeL = CN[C@@H](CC(C)C)C(=O)O",
  "data": [
    {"substance": "EP67•TFA: TFA salt form of EP67 (SEQ ID NO:2), comparator salt (YSFKDMP[NMeL][dA]R-OH; also: TFA salt)", "values": [
      {"measurement": "IL-6", "setting": "mouse spleen cells; 0.1 μg/mL activator", "result": "178 ± 1", "unit": "pg/mL"},
      {"measurement": "IL-6", "setting": "mouse spleen cells; 1.0 μg/mL activator", "result": "185 ± 2", "unit": "pg/mL"},
      {"measurement": "IL-6", "setting": "mouse spleen cells; 10 μg/mL activator", "result": "308 ± 7", "unit": "pg/mL"},
      {"measurement": "IL-6", "setting": "mouse spleen cells; 100 μg/mL activator", "result": "803 ± 6", "unit": "pg/mL"},
      {"measurement": "IL-6", "setting": "mice spleen cells; time collected 6 hr", "result": "55 ± 1", "unit": "pg/mL"},
      {"measurement": "IL-6", "setting": "mice spleen cells; time collected 24 hr", "result": "803 ± 6", "unit": "pg/mL"},
      {"measurement": "IL-6", "setting": "mice spleen cells; time collected 48 hr", "result": "442 ± 13", "unit": "pg/mL"},
      {"measurement": "IL-6", "setting": "mice spleen cells; time collected 72 hr", "result": "75 ± 6", "unit": "pg/mL"}
    ]},
    {"substance": "EP67•OAc^−: acetate salt form of EP67 (SEQ ID NO:2), comparator salt (YSFKDMP[NMeL][dA]R-OH; also: acetate salt)", "values": [
      {"measurement": "IL-6", "setting": "mouse spleen cells; 0.1 μg/mL activator", "result": "188 ± 1", "unit": "pg/mL"},
      {"measurement": "IL-6", "setting": "mouse spleen cells; 1.0 μg/mL activator", "result": "325 ± 23", "unit": "pg/mL"},
      {"measurement": "IL-6", "setting": "mouse spleen cells; 10 μg/mL activator", "result": "225 ± 20", "unit": "pg/mL"},
      {"measurement": "IL-6", "setting": "mouse spleen cells; 100 μg/mL activator", "result": "780 ± 9", "unit": "pg/mL"},
      {"measurement": "IL-6", "setting": "mice spleen cells; time collected 6 hr", "result": "188 ± 1", "unit": "pg/mL"},
      {"measurement": "IL-6", "setting": "mice spleen cells; time collected 24 hr", "result": "325 ± 23", "unit": "pg/mL"},
      {"measurement": "IL-6", "setting": "mice spleen cells; time collected 48 hr", "result": "900 ± 17", "unit": "pg/mL"}
    ]},
    {"substance": "EP67•HCl: HCl salt form of EP67 (SEQ ID NO:2), a response selective C-terminal analog of C5a (YSFKDMP[NMeL][dA]R-OH; also: HCl salt)", "values": [
      {"measurement": "IL-6", "setting": "mouse spleen cells; 0.1 μg/mL activator", "result": "176 ± 3", "unit": "pg/mL"},
      {"measurement": "IL-6", "setting": "mouse spleen cells; 1.0 μg/mL activator", "result": "225 ± 1", "unit": "pg/mL"},
      {"measurement": "IL-6", "setting": "mouse spleen cells; 10 μg/mL activator", "result": "738 ± 5", "unit": "pg/mL"},
      {"measurement": "IL-6", "setting": "mouse spleen cells; 100 μg/mL activator", "result": "1163 ± 2", "unit": "pg/mL"},
      {"measurement": "total amount of cytokine (IL-6) released from murine splenocytes, compared with other salt forms", "setting": "mouse spleen cells; varying concentrations, murine splenocytes", "result": "outperformed the acetate (OAc) and, particularly, the TEA salt forms"},
      {"measurement": "IL-6", "setting": "mice spleen cells; time collected 6 hr", "result": "47 ± 1", "unit": "pg/mL"},
      {"measurement": "IL-6", "setting": "mice spleen cells; time collected 24 hr", "result": "1163 ± 2", "unit": "pg/mL"},
      {"measurement": "IL-6", "setting": "mice spleen cells; time collected 48 hr", "result": "923 ± 6", "unit": "pg/mL"},
      {"measurement": "IL-6", "setting": "mice spleen cells; time collected 72 hr", "result": "200 ± 11", "unit": "pg/mL"},
      {"measurement": "kinetics of IL-6 release (time to maximal release), compared with other salt forms", "setting": "mice spleen cells; murine splenocytes, over time", "result": "maximal IL-6 release quicker than the other two salt forms"}
    ]}
  ]
}
